Data as given in patent US20090087417A1, “METHODS FOR PROMOTING DOPAMINERGIC NEURONAL DEVELOPMENT BY USING NG4A-SUBFAMILY AND WNT-LIGANDS” (priority 2002, published 2009).

Legend:
Format in all cases: cell-based, rat
[1] = tested on: E14.5 ventral mesencephalic precursor cultures; assay: Number of TH+ neurons in E14.5 ventral mesencephalic precursor cultures; settings: increasing concentrations of partially purified Wnt, 3 days
Method: (§1) Ventral mesencephala and cerebral cortices from embryos E13.5-14.5 obtained from timed-mated Sprague-Dawley rats were dissected, mechanically dissociated and plated at a final density of 1×10^5 cells/cm2 on poly-D-lysine coated 12- or 24-well plates in a defined, serum-free medium (N2, consisting of a 1:1 mixture of F12 and DMEM containing insulin (10 ng/ml), transferrin (100 μg/ml), putrescine (100 μM), progesterone (20 nM), selenium (30 nM), glucose (6 mg/ml), and bovine serum albumin (1 mg/ml)). Purified Type 1 astrocytes were obtained from mixed glial cultures derived from the VM or CTX of P1 rats according to a standard protocol (Wagner et al., 1999). After shaking and replating into 12-well plates, astrocytes were grown to confluency in 15% fetal bovine serum-containing media and changed to N2 medium, at which time freshly dissected VM or CTX cells were plated on top of the astrocytes at a density of 1×10^5 cells/cm2. All factors were added once, at the initiation of culture, with the exception of 5-bromodeoxyuridine (BrdU), which was added 4-6 hours prior to fixation. Cultures were maintained in a humidified 5% CO2, 95% air incubator at 37° C. and fixed after given time periods with 4% paraformaldehyde for 45 minutes prior to immunocytochemical analysis.
B1A fibroblast lines stably overexpressing hemagglutanin-tagged Wnt-1a, 3a, or 5a (Shimizu H., 1997) were grown in standard complete media (DMEM+10% FBS) supplemented with 100 ug/ml G-418. For collection of conditioned media, cells were replated at low density in complete media and allowed to reach 50-75% confluency, at which point cells were washed and media was replaced with serum-free N2 (with 10 μM sodium butyrate) for 24 hours. Conditioned media from sister flasks was then harvested, pooled as lots and stored at −80° C. for up to 2 months. When compared to fresh CM, no loss of activity was observed when using this collection and storage routine. T1A CM was harvested using a similar procedure, with the exception that media was collected after 3 days in vitro.
For concentration, individual lots of CM were thawed at room temperature, divided into 80 ml aliquots, loaded onto Centricon-Plus 80 columns (Millipore) and concentrated via centrifugation according to the manufacturers instructions. Following concentration, aliquots were re-pooled and frozen at −80 C after a sample was taken for determination of protein content and Western blot analysis. In brief, 20 ug of protein was loaded onto a 10% polyacrylamide mini-gel and run under denaturing conditions at 150 V for approximately 30 minutes. After dry electroblot transfer onto PVDF membranes (Hybond P, Amersham Pharmacia Biotech, Upsalla, Sweden) and pre-incubation for 30 minutes in a blocking buffer consisting of 3% bovine serum albumin in Tris-Buffered Saline with […] Triton-X 100 (TBST), blots were incubated with mouse anti-hemagglutinin (Babco) diluted 1:1000 in TBST overnight at 4 C. After washing, blots were incubated with alkaline phosphatase-coupled goat anti-mouse IgG (Santa Cruz) diluted 1:1000 in TBST for 1 hour at room temperature. Blots were visualized using the Amersham ECF reagent and blue fluorescence quantitated using a Molecular Devices Storm 840 phosphoimager.
(§2) B1A fibroblast lines were cotransfected with the mFz8CRD-IgG/pRK5 and the pIRES puro 2 (Clontech, BD Bioscience, Erembodegem, Belgium) plasmids, using Lipofectamine Plus reagent (Invitrogen, Lidingo, Sweden) according to the instruction of the manufacturer. Upon selection for puromycin resistance (1 μg/ml Sigma, Stockholm, Sweden), clones were isolated and expanded. A clone overexpressing Fz8CRD 700× (real time RT-PCR analysis) was identified. Harvesting and partial purification of Fz8CRD conditioned media were performed as described previously. In all the blocking experiments performed, the Fz8CRD and B1A control partial purified conditioned medias were used at a final concentration of 125-250 μg/ml. […]

[2] = tested on: ventral mesencephalic Nurr1+ neuronal precursors; assay: Conversion of VM Nurr1+ precursors into Nurr1+/TH+ dopaminergic neurons (double immunostaining); settings: VM cultures; control approximately 50%
Method: as §1, §2
Only clearly stained cells were counted as positive cells. […]

[3] = tested on: E14.5 ventral mesencephalic (VM) cultures; assay: Proliferating clusters containing TH+ neurons in VM cultures; settings: 10 units, 7 days in vitro
Method: as §1, with “All factors were added once, at the initiation of culture, with the exception of 5-bromodeoxyuridine (BrdU), which was added 4-6 hours prior to fixation. Cultures were maintained in a humidified 5% CO2, 95% air incubator at 37° C. and fixed after given time periods with 4% paraformaldehyde for 45 minutes prior to immunocytochemical analysis.” left out
Only clearly stained cells were counted as positive cells. […] Quantitative immunocytochemical data on individual cells represent means and standard errors of counts obtained by a blinded observer from 10-20 non-overlapping fields (cells) or in the entire well (clusters), in each of 3-4 wells per condition from 3-4 independent experiments, unless stated otherwise. […]

[4] = tested on: VM precursor cultures / Nurr1+ precursor cells; assay: BrdU incorporation (proliferation) in VM precursor cultures
Method: as §1
(§3) Fixed cultures were incubated with one of the following antibodies, diluted appropriately in phosphate-buffered saline (PBS) containing 1% bovine serum albumin and 0.3% Triton-X 100: mouse anti-BrdU, 1:50 (DAKO, Denmark), mouse anti-β-tubulin, Type III (TuJ1), 1:250 (Sigma), mouse anti-TH, 1:1000 (Incstar, USA), rabbit anti-TH, 1:250 (PelFreeze); rabbit anti-Nurr1, 1:2000 (gift from Dr. T. Perlmann, Sweden), rabbit anti-Nurr1, 1:1000 (Santa Cruz, USA) or mouse anti-Nurr1, 1:250 (BD Transduction Laboratories, USA), rabbit anti Adh2 1:4000 (gift from Dr. R. Lindahl, South Carolina). Incubations were either carried out at 4° C. overnight, or at room temperature for 1 hour. Both processes yielded similar results. After washing, cultures were incubated for 1-3 hr with appropriate secondary antibodies (biotinylated 1:500; CY2-, FITC-, or rhodamine-coupled horse-anti-mouse IgG 1:100; or goat-anti-rabbit IgG 1:100; all from Vector, USA), in the same dilution buffer. Brightfield immunostaining was visualized with the Vector Laboratory ABC immunoperoxidase kit, using either NovaRed (red), or AEC (red), SG or 3-3′ dimaminobenzidine tetrahydrochloride (DAB 0.5 mg/ml)/nickel chloride (1.6 mg/ml) (gray/black), or VIP (violet) substrates. Double-staining was performed by sequential single staining as described. The order of staining was only critical for BrdU-double labeling, in which case the BrdU procedure was always performed second. […] Photos were acquired with a Zeiss Axioplan 100M microscope and collected with a Hamamatsu camera C4742-95 (with the QED imaging software).
(§4) Only clearly stained cells were counted as positive cells. Spheres were considered positive if they contained one or more positive cell. Quantitative immunocytochemical data on individual cells represent means and standard errors of counts obtained by a blinded observer from 10-20 non-overlapping fields (cells) or in the entire well (clusters), in each of 3-4 wells per condition from 3-4 independent experiments, unless stated otherwise. For each variable, initial statistical comparisons were performed by a global ANOVA, with multiple factors of dose, time point, treatment and/or region; if significant interactions between treatment and any other variable existed, data were further divided into separate times, doses or regions. Fisher's protected least significant difference was used post hoc to identify specific points at which the treatments differed from controls (or each other) only when significant interactions between factor treatment and other variables occurred. Significance for all tests was assumed at the level of p<0.05. […]

[5] = tested on: E13.5 primary cultures from the cerebral cortex; assay: Induction of TH in Nurr1+ E13.5 cerebral cortex primary cultures; settings: Wnt ligands or co-culture with P1 astrocytes
Method: as §1, §3
Only clearly stained cells were counted as positive cells. Spheres were considered positive if they contained one or more positive cell. Quantitative immunocytochemical data on individual cells represent means and standard errors of counts obtained by a blinded observer from 10-20 non-overlapping fields (cells) or in the entire well (clusters), in each of 3-4 wells per condition from 3-4 independent experiments, unless stated otherwise. […]

VM cultures = assay: TuJ1+ neurons and proliferating clusters, proportion dopaminergic, in VM cultures
Method: as §1, §3, §4

Wnt-3a was tested. Which “TH+ cell numbers” value [1] did it give?
Its value is “no effect at doses up to 100 units”.

What about the “proportion of Nurr1 positive cells that expressed TH (Nurr1+/TH+)” value [2] of the same substance?
Its value is 30%.

What about the “increase in the number of clusters containing one or more TH+ neurons” value [3] of the same substance?
Its value is “not”.

And the “increase in Nurr1 and BrdU double positive precursor cells (mitosis in Nurr1+ population)” value ([4]; 1 day in vitro)?
The value was 3 fold.

What about the “BrdU incorporation in VM precursor cultures” value ([4]; 3 days in vitro) of the same substance?
The value was “increased”.

And the “proportion of Nurr1 positive cortical cells that expressed TH” value [5]?
The value was “virtually no Nurr1 positive cortical cells co-expressed TH”.

What about the “proportion of VM clusters containing dopaminergic neurons” value (VM cultures; FIG. 3e) of the same substance?
Its value is “less than 10%”.

What about the “total number of TuJ1+ neurons” value (VM cultures; FIG. 3f) of the same substance?
The value was “did not increase”.

And the “proportion of TH+ (dopaminergic) neurons” value (VM cultures; FIG. 3g)?
The value was “decreased”.
